Assay results published in ChEMBL document CHEMBL1152179, “Semi-synthesis and biological activity of gamma-lactones analogs of camptothecin” (Bioorg Med Chem Lett, 2008).
The source made the active and inactive calls. The rule behind the calls is not given here.

Key:
Assay type in all cases: functional, cell-based
A549 [1] = experiment: Cytotoxicity against human A549 cells upto 100 uM by SRB method
HT-29 [2] = experiment: Cytotoxicity against human HT-29 cells upto 100 uM by SRB method
A549 [3] = experiment: Cytotoxicity against human A549 cells by SRB method
HT-29 [4] = experiment: Cytotoxicity against human HT-29 cells by SRB method

Structure (SMILES) | Activity (A549 [1]) | Activity (HT-29 [2]) | IC50 (A549 [3]) | IC50 (HT-29 [4])
CC[C@@]1(C(=O)NCCCO)OC(=O)c2c1cc1n(c2=O)Cc2cc3ccccc3nc2-1 | inactive | inactive | – | –
CC[C@@]1(C(=O)NCCN2CCOCC2)OC(=O)c2c1cc1n(c2=O)Cc2c-1nc1ccccc1c2C1CCCC1 | inactive | inactive | – | –
CCc1c2c(nc3ccc(OC)cc13)-c1cc3c(c(=O)n1C2)C(=O)O[C@@]3(CC)C(=O)NCCN1CCOCC1 | inactive | inactive | – | –
CCCCNC(=O)[C@]1(CC)OC(=O)c2c1cc1n(c2=O)Cc2c-1nc1ccccc1c2CC | inactive | inactive | – | –
CC[C@@]1(O)C(=O)OCc2c1cc1n(c2=O)Cc2cc3c(CN(C)C)c(O)ccc3nc2-1 [TOPOTECAN] | – | – | 0.48 µM | 0.375 µM
CCc1c2c(nc3ccc(O)cc13)-c1cc3c(c(=O)n1C2)COC(=O)[C@]3(O)CC [7-ETHYL-10-HYDROXYCAMPTOTHECIN] | – | – | 0.08 µM | 0.12 µM
CC[C@@]1(C(=O)NCCN2CCOCC2)OC(=O)c2c1cc1n(c2=O)Cc2c-1nc1ccccc1c2C1CCCCC1 | inactive | inactive | – | –
CC[C@@]1(C(=O)NCCN2CCCCC2)OC(=O)c2c1cc1n(c2=O)Cc2cc3ccccc3nc2-1 | – | – | 74.9 µM | 31.6 µM
CCCCNC(=O)[C@]1(CC)OC(=O)c2c1cc1n(c2=O)Cc2cc3ccccc3nc2-1 | – | – | 70.1 µM | 68.3 µM
CC[C@@]1(C(=O)NCCO)OC(=O)c2c1cc1n(c2=O)Cc2cc3ccccc3nc2-1 | inactive | inactive | – | –
CC[C@@]1(C(=O)NCCN2CCSCC2)OC(=O)c2c1cc1n(c2=O)Cc2cc3ccccc3nc2-1 | inactive | inactive | – | –
CC[C@@]1(C(N)=O)OC(=O)c2c1cc1n(c2=O)Cc2cc3ccccc3nc2-1 | inactive | inactive | – | –
CCN(CC)CCNC(=O)[C@]1(CC)OC(=O)c2c1cc1n(c2=O)Cc2cc3ccccc3nc2-1 | – | – | 65.3 µM | 31.6 µM
CC[C@@]1(C(=O)NCCN2CCCC2)OC(=O)c2c1cc1n(c2=O)Cc2cc3ccccc3nc2-1 | – | – | 94.3 µM | 31.6 µM
CC[C@@]1(C(=O)NCCN2CCN(C)CC2)OC(=O)c2c1cc1n(c2=O)Cc2cc3ccccc3nc2-1 | – | – | 53.1 µM | 7.25 µM
CC[C@@]1(C(=O)NCCN2CCOCC2)OC(=O)c2c1cc1n(c2=O)Cc2c-1nc1ccc(OC)cc1c2C1CCCC1 | – | – | 96.5 µM | 62.9 µM
CC[C@@]1(C(=O)NCCN2CCOCC2)OC(=O)c2c1cc1n(c2=O)Cc2cc3ccccc3nc2-1 | – | – | 25.6 µM | 39.9 µM
CC[C@@]1(C(=O)NCCN2CCOCC2)OC(=O)c2c1cc1n(c2=O)Cc2c-1nc1ccccc1c2C(=O)C1CC1 | inactive | inactive | – | –
